From patent US12559553B2, “IL-31 modulators for treating FXR-induced pruritus” (Gilead Sciences, Inc., priority 2021, dated 2026)
Values joined by “and” are separate entries in the source; they are usually repeats but may differ in a detail not shown here. Equal values may be shown once. “Also recorded” adds a separate entry of the source.

Assays:
[1] = test system: human IL-31; assay: IL-31 in chimeric PXB mice with human hepatocytes treated with OCA; format: in vivo; conditions: OCA 10 mg/kg QD for 18 days
[2] = test system: IL-31; assay: Serum IL-31 (SIMOA assay), Phase 2 study of cilofexor in non-cirrhotic NASH patients; format: in vivo, human; conditions: for Serum IL-31, median (IQR) / Increase of IL-31 in patients with grade 2 or 3 pruritus versus the others: NASH
Protocol: (§1) Serum IL-31 (SIMOA©assay; Myriad, Austin, TX) was measured in a Phase 2 study of cilofexor (CILO, a non-steroidal FXR agonist) in non-cirrhotic NASH (n=140) patients. Patients were randomized 2:2:1 to CILO 100 mg, 30 mg, or placebo daily. Associations between serum IL-31 and pruritus-related adverse events and patient-reported outcomes (Visual Analog Scale [VAS] and 5-D Itch) were determined.

[3] = test system: IL-31; assay: Serum IL-31 pre-dose and post-dose, CILO phase 1 study in healthy volunteers; format: in vivo, human
Protocol: In the CILO phase 1 study, serum IL-31 levels were assessed in pre-dose and post-dose (from 1 to 8 hr) samples from the healthy volunteers (HVs) with placebo or CILO 30 mg, 100 mg or 300 mg. The HVs with CILO 100 mg or 300 mg had elevated serum IL-31 levels with peak concentration at 4-6 hr post-dose samples (data not shown). A similar intensive sampling study was also performed in the CILO NASH study. IL-31 levels in the serially collected samples were compared in NASH patients and HVs with CILO 100 mg. In HVs with CILO 100 mg, serum IL-31 achieved the peak concentration of 0.22 pg/mL and 2.6 fold increase from pre-dose (data not shown). NASH patients with the same dose had more increased serum IL-31 than HV.

[4] = test system: IL-31; assay: Serum IL-31 in serially collected samples (intensive sampling), CILO NASH study; format: in vivo, human; conditions: NASH patients, CILO 100 mg
Protocol: A similar intensive sampling study was also performed in the CILO NASH study. IL-31 levels in the serially collected samples were compared in NASH patients and HVs with CILO 100 mg. In HVs with CILO 100 mg, serum IL-31 achieved the peak concentration of 0.22 pg/mL and 2.6 fold increase from pre-dose (data not shown). NASH patients with the same dose had more increased serum IL-31 than HV. […] Activation of FXR in the intestinal epithelial cells induces FGF-19 secretion. FGF-19 suppressed CYP7A1 expression, which is a key enzyme to […] 7α-hydroxycholesterol. 7α-hydroxycholesterol is metabolized into 7α-hydroxy-4-cholesten-3-one (C4). The increased FGF-19 and reduced C4 levels in circulation are target engagement assessments for FXR agonists.

[5] = test system: FGF-19; assay: FGF-19 target engagement in healthy volunteers; format: in vivo, human; conditions: CILO 100 mg, 4 hr post-dose
From the text: (§2) Activation of FXR in the intestinal epithelial cells induces FGF-19 secretion. FGF-19 suppressed CYP7A1 expression, which is a key enzyme to […] 7α-hydroxycholesterol. 7α-hydroxycholesterol is metabolized into 7α-hydroxy-4-cholesten-3-one (C4). The increased FGF-19 and reduced C4 levels in circulation are target engagement assessments for FXR agonists.

[6] = test system: FGF-19; assay: FGF-19 target engagement in NASH patients; format: in vivo, human
From the text: as §2

[7] = test system: 7α-hydroxy-4-cholesten-3-one (C4); assay: C4 levels in circulation, CILO NASH study; format: in vivo, human
From the text: as §2

[8] = Pruritus adverse events, Phase 2 study of cilofexor in PSC patients; format: in vivo, human
Protocol: as §1, with “IL-31 (SIMOA® assay;” for “IL-31 (SIMOA©assay;”, “in two” for “in a”, “2 studies” for “2 study”, “in PSC (n=52) and PBC (n=71). In all studies, patients” for “in non-cirrhotic NASH (n=140) patients. Patients”

[9] = test system: IL-31; assay: Serum IL-31 (SIMOA assay), Phase 2 study of cilofexor in PSC patients; format: in vivo, human
Protocol: as §1, with “IL-31 (SIMOA® assay;” for “IL-31 (SIMOA©assay;”, “in two” for “in a”, “2 studies” for “2 study”, “in PSC (n=52) and PBC (n=71). In all studies, patients” for “in non-cirrhotic NASH (n=140) patients. Patients”

[10] = test system: IL-31; assay: Serum IL-31 (SIMOA assay), Phase 2 study of cilofexor in PBC patients; format: in vivo, human
Protocol: Serum IL-31 (SIMOA® assay; Myriad, Austin, TX) was measured in two Phase 2 studies of cilofexor (CILO, a non-steroidal FXR agonist) in PSC (n=52) and PBC (n=71). In all studies, patients were randomized 2:2:1 to CILO 100 mg, 30 mg, or placebo daily. Associations between serum IL-31 and pruritus-related adverse events and patient-reported outcomes (Visual Analog Scale [VAS] and 5-D Itch) were determined. In PBC, IL-31 correlated to VAS (ρ=0.42, p<0.001) and 5-D Itch (ρ=0.58, p<0.001) (Table 6).

[11] = test system: IL-4; assay: Serum IL-4 and other inflammatory markers in the CILO NASH study; format: in vivo, human; conditions: NASH patients
Protocol: IL-31 is expressed and secreted by activated T helper 2 (Th2) cell. IL-4, a type II immune cytokine, was associated with activation of Th2 cells and serum IL-31 levels in patients with atopic dermatitis. Serum IL-4 levels were assessed in the CILO NASH and PSC studies.

[12] = Cholestasis (ALP and BA levels) in PSC and PBC patients; format: in vivo, human
[13] = serially collected blood samples, 100 mg CILO, 6 hr post-dose
[14] = PBC, serially collected blood samples, 100 mg CILO, 5 hr post-dose

Compound: CC[C@H]1[C@@H](O)[C@@H]2[C@H](CC[C@]3(C)[C@@H]([C@H](C)CCC(=O)O)CC[C@@H]23)[C@@]2(C)CC[C@@H](O)C[C@@H]12 [OCA, obeticholic acid]
- Hepatic IL-31 mRNA expression vs vehicle [1]: 7.8 fold

Compound: O=C(O)c1ccnc(N2CC(O)(c3ccc(OCc4c(-c5c(Cl)cccc5Cl)noc4C4CC4)cc3Cl)C2)c1 [CILO, cilofexor]
- Effect on serum IL-31 ([2]; NASH patients, week 1 to week 24, 30 mg and 100 mg): increased serum IL-31 in a dose-dependent manner
- Serum IL-31, median (IQR) ([2]; CILO 30 mg, Baseline): 0.09 pg/mL
- Serum IL-31, median (IQR) ([2]; CILO 30 mg, Week 1): 0.15 pg/mL
- Serum IL-31, median (IQR) ([2]; CILO 30 mg, Week 4): 0.105 pg/mL
- Serum IL-31, median (IQR) ([2]; CILO 30 mg, Week 8): 0.14 pg/mL
- Serum IL-31, median (IQR) ([2]; CILO 30 mg, Week 12): 0.145 pg/mL
- Serum IL-31, median (IQR) ([2]; CILO 30 mg, Week 24): 0.15 (0.062, 0.27) pg/mL and 0.15 pg/mL
- Serum IL-31, median (IQR) ([2]; CILO 100 mg, Baseline): 0.083 pg/mL
- Serum IL-31, median (IQR) ([2]; CILO 100 mg, Week 1): 0.21 pg/mL
- Serum IL-31, median (IQR) ([2]; CILO 100 mg, Week 4): 0.24 pg/mL
- Serum IL-31, median (IQR) ([2]; CILO 100 mg, Week 8): 0.26 pg/mL
- Serum IL-31, median (IQR) ([2]; CILO 100 mg, Week 12): 0.26 pg/mL
- Serum IL-31, median (IQR) ([2]; CILO 100 mg, Week 24): 0.26 (0.13, 0.82) pg/mL and 0.26 pg/mL
- Increase of IL-31 in patients with grade 2 or 3 pruritus versus the others ([2]; W1): 5.1 fold
- Increase of IL-31 in patients with grade 2 or 3 pruritus versus the others ([2]; W4): 2.9 fold
- Increase of IL-31 in patients with grade 2 or 3 pruritus versus the others ([2]; W8): 3.8 fold
- Increase of IL-31 in patients with grade 2 or 3 pruritus versus the others ([2]; W12): 4.5 fold
- Increase of IL-31 in patients with grade 2 or 3 pruritus versus the others ([2]; W24): 7 fold
- Serum IL-31 peak concentration ([3]; CILO 100 mg): 0.22 pg/mL
- Serum IL-31 levels post-dose ([3]; CILO 100 mg or 300 mg): elevated
- Time of peak serum IL-31 concentration post-dose ([3]; CILO 100 mg or 300 mg): 4 to 6 h
- Serum IL-31 increase from pre-dose ([3]; CILO 100 mg, at peak): 2.6 fold
- Serum IL-31 peak concentration ([4]; 4-6 hr post-dose): 13 pg/mL and 12 to 13 pg/mL
- Serum IL-31 increase from pre-dose ([4]; at peak): 23.6 fold and 21.8-23.6 fold
- FGF-19 peak concentration [5]: 591.6 pg/mL
- FGF-19 peak concentration ([6]; NASH patients, CILO 100 mg, 4 hr post-dose): 829.7 pg/mL
- FGF-19 increase from pre-dose [6, 13]: 45.9 fold
- FGF-19 peak concentration [6, 13]: around 1826 pg/mL
- FGF-19 median at pre-dose ([6]; serially collected blood samples, 100 mg CILO, pre-dose): 39.8 pg/mL
- C4 levels compared to placebo ([7]; W24, CILO 30 mg): significantly declined
- C4 levels compared to placebo ([7]; W24, CILO 100 mg): significantly declined
- Effect on pruritus [8]: did not exacerbate pruritus
- Any Grade pruritus, patients ([8]; CILO 30 mg): 5
- Grade 1 pruritus, patients ([8]; CILO 30 mg): 2
- Grade 2 pruritus, patients ([8]; CILO 30 mg): 1
- Grade 3 pruritus, patients ([8]; CILO 30 mg): 2
- Patients who reported grade 2 or 3 pruritus ([8]; CILO 30 mg): 3 subjects
- Any Grade pruritus, patients ([8]; CILO 100 mg): 8
- Grade 1 pruritus, patients ([8]; CILO 100 mg): 5
- Grade 2 pruritus, patients ([8]; CILO 100 mg): 1
- Grade 3 pruritus, patients ([8]; CILO 100 mg): 2
- Patients who reported grade 2 or 3 pruritus ([8]; CILO 100 mg): 3 subjects
- Dose-dependent effect on serum IL-31 [9]: not observed
- Effect on serum IL-31 levels ([9]; 12-week treatment): did not alter; also recorded: no effect
- Dose-dependent effect on serum IL-31 ([10]; PBC patients): not observed
- Effect on serum IL-31 levels ([10]; PBC patients, fasting samples at Weeks 1, 4 and 12, compared to placebo): did NOT change; also recorded: no effect; also recorded: did not alter
- IL-31 increase from pre-dose [10, 14]: 2.5 fold
- IL-31 level post-dose [10, 14]: 7.4 pg/mL
- IL-31 median level at pre-dose ([10]; PBC, serially collected blood samples, 100 mg CILO, pre-dose): 3 pg/mL
- Effect on other inflammatory markers (IL-4 and IL-18) [11]: without changing
- Effect on serum IL-4 [11]: did not elevate
- Effect on cholestasis (ALP and BA levels) [12]: improved cholestasis
